The values below come from US20250186453A1, “COMBINATION THERAPIES COMPRISING A SOS1 INHIBITOR AND A MEK INHIBITOR” (Mirati Therapeutics, Inc., priority 2022, published 2025).

Assay [1] concerns LN229 cells harboring the A72S mutation (PTPN11 A72S). The experiment in a line: LN229 tumor xenograft model, SOS1 inhibitor - MEK inhibitor combination. The class given is in vivo, nude/nude mice. The settings on record: for tumor growth inhibition: LN229 tumors, day 28, single agent, MRTX0902 50 mg/kg twice daily, VS-6766 0.3 mg/kg twice daily Monday, Wednesday, Friday; for Average Tumor Volumes of LN229 Tumor Bearing Mice: p.o., MRTX0902 50 mg/kg BID, VS-6766 0.3 mg/kg BID MWF (Q2D), mean of 5 mice. Here is the method:
Immunocompromised nude/nude mice are inoculated in the right hind flank with LN229 cells harboring the A72S mutation. When tumor volumes reach approximately 150 mm3 in size, the mice are divided into four groups of 5 mice each. The first group is administered vehicle only. […] The fourth group is administered the single agent dose of the SOS1 inhibitor in combination with the single agent dose of the MEK inhibitor. The treatment period was 28 days. Tumor volumes are measured using a caliper every two—three days and tumor volumes are calculated by the formula: 0.5×(Length×Width)2.
[0153]20 nude/nude mice were inoculated in the right hind limb with 5×10^6 LN229 cells. When tumor volume reached ˜150 mm3 (Study Day 0), 5 mice in each of the four groups were administered p.o. daily for 28 days: vehicle only (0.5% MC (4000 cps)/0.2% Tween80 in water), 50 mg/kg BID of the SOS1 inhibitor (R)-2-methyl-3-(1-((4-methyl-7-morpholinopyrido[3,4-d]pyridazin-1-yl)amino)ethyl)benzonitrile (MRTX0902) (0.5% MC (4000 cps)/0.2% Tween80 in water), 0.3 mg/kg BID Q2D of MEK inhibitor VS-6766 (5% DMSO, 10% HPCD in water), or 50 mg/kg BID MRTX0902 and 0.3 mg/kg BID Q2D. Tumor volumes, measured at pre-specified days, for the five mice per group were averaged and are reported for LN229 cells in Table 1 and FIG. 1.

Assay [2] relates to NCI-H1435 cells harboring NF1 K615N mutation. Description: NCI-H1435 tumor xenograft model, SOS1 inhibitor - MEK inhibitor combination. The format is in vivo, nude/nude mice. The settings on record: for tumor growth inhibition: NCI-H1435 tumors, day 27, single agent, MRTX0902 50 mg/kg twice daily, VS-6766 0.3 mg/kg twice daily Monday, Wednesday, Friday; for Average Tumor Volumes of NCI-H1435 Tumor Bearing Mice: p.o., MRTX0902 50 mg/kg BID, VS-6766 0.3 mg/kg BID MWF (Q2D), mean of 5 mice. The protocol:
Immunocompromised nude/nude mice are inoculated in the right hind flank with NCI-H1435 cells harboring NF1 K615N mutation. When tumor volumes reach approximately 150 mm3 in size, the mice are divided into four groups of 5 mice each. The first group is administered vehicle only. […] The fourth group is administered a single agent dose of the SOS1 inhibitor in combination with a single agent dose of the MEK inhibitor. The treatment period was 27 days. Tumor volumes are measured using a caliper every two—three days and tumor volumes are calculated by the formula: 0.5×(Length×Width)2.
20 nude/nude mice were inoculated in the right hind limb with 5×10^6 NCI-H1435 cells. When tumor volume reached ˜150 mm3 (Study Day 0), 5 mice in each of the four groups were administered p.o. daily for 27 days: vehicle only (0.5% MC (4000 cps)/0.2% Tween80 in water), 50 mg/kg BID of the SOS1 inhibitor (R)-2-methyl-3-(1-((4-methyl-7-morpholinopyrido[3,4-d]pyridazin-1-yl)amino)ethyl)benzonitrile (MRTX0902) (0.5% MC (4000 cps)/0.2% Tween80 in water), 0.3 mg/kg BID Q2D of MEK inhibitor VS-6766 (5% DMSO, 10% HPCD in water), or 50 mg/kg BID MRTX0902 and 0.3 mg/kg BID Q2D VS-6766. Tumor volumes, measured at pre-specified days, for the five mice per group were averaged and are reported for NCI-H1435 cells in Table 2 and FIG. 2.

`Cc1c(C#N)cccc1[C@@H](C)Nc1nnc(C)c2cnc(N3CCOCC3)cc12` [MRTX0902, (R)-2-methyl-3-(1-((4-methyl-7-morpholinopyrido[3,4-d]pyridazin-1-yl)amino)ethyl)benzonitrile]: the tumor growth inhibition in assay [1] was determined as 37.6%; in assay [2] it was 49.8%. Besides, the “Average Tumor Volumes of LN229 Tumor Bearing Mice” value in assay [1] (Study Day 0 (start of dosing)) was found to be 151 mm^3; in assay [1] (Study Day 4), 174 mm^3; in assay [1] (Study Day 7), 199 mm^3; in assay [1] (Study Day 12), 248 mm^3; in assay [1] (Study Day 15), 310 mm^3; in assay [1] (Study Day 18) it was 374 mm^3. Further, the “Average Tumor Volumes of LN229 Tumor Bearing Mice” value in assay [1] (Study Day 25) is on record as 462 mm^3; in assay [1] (Study Day 28), 525 mm^3. For the same compound, the “Average Tumor Volumes of NCI-H1435 Tumor Bearing Mice” value came out at 164 mm^3 in assay [2] (Study Day 0 (start of dosing)); 241 mm^3 in assay [2] (Study Day 3); 292 mm^3 in assay [2] (Study Day 6); 333 mm^3 in assay [2] (Study Day 10); 417 mm^3 in assay [2] (Study Day 13); 437 mm^3 in assay [2] (Study Day 17). The results for the “Average Tumor Volumes of NCI-H1435 Tumor Bearing Mice” value in assay [2] (Study Day 20), in assay [2] (Study Day 24) and in assay [2] (Study Day 27) were 474 mm^3, 583 mm^3 and 608 mm^3, respectively.
For the compound `CNS(=O)(=O)Nc1nccc(Cc2c(C)c3ccc(Oc4ncccn4)cc3oc2=O)c1F` [VS-6766, 3-[[3-fluoro-2-(methylsulfamoylamino)pyridin-4-yl]methyl]-4-methyl-7-pyrimidin-2-yloxychromen-2-one], the tumor growth inhibition worked out at 92.5% in assay [1] and 76.4% in assay [2]. Further, the “Average Tumor Volumes of LN229 Tumor Bearing Mice” value in assay [1] (Study Day 0 (start of dosing)) was determined as 151 mm^3; in assay [1] (Study Day 4) it was 143 mm^3; in assay [1] (Study Day 7), 137 mm^3; in assay [1] (Study Day 12), 120 mm^3; in assay [1] (Study Day 15), 140 mm^3; in assay [1] (Study Day 18), 186 mm^3. Besides, the figures for the “Average Tumor Volumes of LN229 Tumor Bearing Mice” value in assay [1] (Study Day 25) and in assay [1] (Study Day 28) were 225 mm^3 and 196 mm^3, respectively. For the same compound, the “Average Tumor Volumes of NCI-H1435 Tumor Bearing Mice” value in assay [2] (Study Day 0 (start of dosing)) is 166 mm^3; in assay [2] (Study Day 3), 254 mm^3; in assay [2] (Study Day 6), 296 mm^3; in assay [2] (Study Day 10) it was 307 mm^3; in assay [2] (Study Day 13) it was 281 mm^3; in assay [2] (Study Day 17), 286 mm^3. The figures for the “Average Tumor Volumes of NCI-H1435 Tumor Bearing Mice” value in assay [2] (Study Day 20), in assay [2] (Study Day 24) and in assay [2] (Study Day 27) were 322 mm^3, 349 mm^3 and 371 mm^3, respectively.
